{"source": "patent US8252895B2", "about": "“Cyclic peptide compounds” (Astellas Pharma Inc., priority 2005, dated 2012)", "note": "Square brackets hold non-standard residues; d marks the D form. Peptide text beside a SMILES is read from it. * marks the point of attachment. ξ: configuration not given here. MeBmt = C/C=C/C[C@@H](C)[C@@H](O)[C@H](NC)C(=O)O; NMeIle(3ξ) = CCC(C)[C@H](NC)C(=O)O; NMeThr(3ξ) = CN[C@H](C(=O)O)C(C)O; NMePhg = CN[C@H](C(=O)O)c1ccccc1; NMeT = CN[C@H](C(=O)O)[C@@H](C)O; NMeL = CN[C@@H](CC(C)C)C(=O)O; dNMeAbu = CC[C@@H](NC)C(=O)O; NMeV = CN[C@H](C(=O)O)C(C)C; dNMeS = CN[C@H](CO)C(=O)O; dNMeA = CN[C@H](C)C(=O)O; Sar = CNCC(=O)O; tBu = CC(C)(C)*"}
{"biological_target": "HCV replicon", "assay_type": "cell-based, hepatitis C virus", "conditions": "HCV replicon cells, luciferase activity two days after addition of compound, 50% of control (DMSO only)", "method": "It is thought that the replication mechanism of the subgenomic HCV RNA in these cell lines is extremely similar to the replication of full length HCV RNA genome in hepatic cells infected with HCV.\nThe inhibitory activity of the test compounds against the replication of HCV replicon was evaluated by quantified the activity of luciferase, a reporter gene product encoded in the replicon system reported by Yokota et al., EMBO 4: 602-608 (2003). The enzyme assay was carried out according to the technical manual of the Steady-Glo® luciferase assay system (Promega). The replicon assay was carried out with the modified method reported by Lohmann et al., Science 285: 110 (1999). The details are described in the following.\n6×10^3 HCV replicon cells in D-MEM medium containing 5% fetal bovine serum were seeded in each well of a 96-well microtiter plate (Corning Inc.). After the cells were incubated at 37° C. for 16 hours in 5% CO2, the test compound was added.\nAfter cultivation for two more days, the culture medium was removed and 25 μl of Glo Lysis buffer was added to each well and incubated for 5 minutes. Allowing lysis to occur, 25 μl of Steady-Glo® assay reagent was added to each well. After incubation for 5 minutes, the luminescence was measured with a luminometer, Mithras LB940 (BERTHOLD TECHNOLOGIES GmbH & Co.KG) following the manufacturer's instructions.\nThe luciferase activities in replicon cells treated at each concentrations of the compound were employed for the calculation of EC50 value of the each compound, which gave the compound concentration indicating 50% enzyme activity level to the control (no drug group, containing only DMSO).", "units": {"HCV replicon replication inhibitory activity: EC50": "µg/mL"}}
{"compound": "C/C=C/C[C@@H](C)[C@@H](O)[C@H]1C(=O)N[C@@H]([C@@H](C)O)C(=O)N(C)[C@H](COC)C(=O)N(C)[C@@H]([C@@H](C)OC)C(=O)N[C@@H](CC(C)C)C(=O)N(C)[C@@H](CC(C)C)C(=O)N[C@@H](C)C(=O)N[C@H](C)C(=O)N(C)[C@@H](CC(C)C)C(=O)N[C@@H](CC(C)C)C(=O)N(C)[C@@H](C(C)C)C(=O)N1C", "note": "[Example 9] (cyclo(A[dA][NMeL]L[NMeV][MeBmt]T[dNMeS](Me)[NMeT](Me)L[NMeL]))", "HCV replicon replication inhibitory activity: EC50": "<0.5"}
{"compound": "C/C=C/C[C@@H](C)[C@@H](O)[C@H]1C(=O)N[C@@H]([C@@H](C)O)C(=O)N(C)[C@H](C)C(=O)N(C)[C@@H](C(C)O)C(=O)N[C@@H](CC(C)C)C(=O)N(C)[C@@H](CC(C)C)C(=O)N[C@@H](C)C(=O)N[C@H](C)C(=O)N(C)[C@@H](CC(C)C)C(=O)N[C@@H](CC(C)C)C(=O)N(C)[C@@H](C(C)C)C(=O)N1C", "note": "(stereo partly drawn) [Example 12, (3R,6S,9S,12S,15S,18S,21R,24S,27S,30S,33S)-6-[(1R)-1-hydroxyethyl]-33-(1-hydroxyethyl)-9-[(1R,2R,4E)-1-hydroxy-2-methyl-4-hexen-1-yl]-15,18,27,30-tetraisobutyl-12-isopropyl-1,3,4,10,13,19,21,24,28-nonamethyl-1,4,7,10,13,16,19,22,25,28,31-undecaazacyclotritriacontane-2,5,8,11,14,17,20,23,26,29,32-undecone] (cyclo(A[dA][NMeL]L[NMeV][MeBmt]T[dNMeA][NMeThr(3ξ)]L[NMeL]))", "HCV replicon replication inhibitory activity: EC50": "<0.5"}
{"compound": "C/C=C/C[C@@H](C)[C@@H](O)[C@H]1C(=O)N[C@@H]([C@@H](C)O)C(=O)N(C)[C@H](C)C(=O)N(C)[C@@H](C(C)CC)C(=O)N[C@@H](CC(C)C)C(=O)N(C)[C@@H](CC(C)C)C(=O)N[C@@H](C)C(=O)N[C@H](C)C(=O)N(C)[C@@H](CC(C)C)C(=O)N[C@@H](CC(C)C)C(=O)N(C)[C@@H](C(C)C)C(=O)N1C", "note": "(stereo partly drawn) [Example 14, (3R,6S,9S,12S,15S,18S,21R,24S,27S,30S,33S)-33-sec-butyl-6-[(1R)-1-hydroxyethyl]-9-[(1R,2R,4E)-1-hydroxy-2-methyl-4-hexen-1-yl]-15,18,27,30-tetraisobutyl-12-isopropyl-1,3,4,10,13,19,21,24,28-nonamethyl-1,4,7,10,13,16,19,22,25,28,31-undecaazacyclotritriacontane-2,5,8,11,14,17,20,23,26,29,32-undecone] (cyclo(A[dA][NMeL]L[NMeV][MeBmt]T[dNMeA][NMeIle(3ξ)]L[NMeL]))", "HCV replicon replication inhibitory activity: EC50": "<0.5"}
{"compound": "C/C=C/C[C@@H](C)[C@@H](O)[C@H]1C(=O)N[C@@H]([C@@H](C)O)C(=O)N(C)[C@H](C)C(=O)N(C)[C@@H](c2ccccc2)C(=O)N[C@@H](CC(C)C)C(=O)N(C)[C@@H](CC(C)C)C(=O)N[C@@H](C)C(=O)N[C@H](C)C(=O)N(C)[C@@H](CC(C)C)C(=O)N[C@@H](CC(C)C)C(=O)N(C)[C@@H](C(C)C)C(=O)N1C", "note": "[Example 15] (cyclo(A[dA][NMeL]L[NMeV][MeBmt]T[dNMeA][NMePhg]L[NMeL]))", "HCV replicon replication inhibitory activity: EC50": "<0.5"}
{"compound": "C/C=C/C[C@@H](C)[C@@H](O)[C@H]1C(=O)N[C@@H]([C@@H](C)O)C(=O)N(C)[C@H](CC)C(=O)N(C)[C@@H]([C@@H](C)OC)C(=O)N[C@@H](CC(C)C)C(=O)N(C)[C@@H](CC(C)C)C(=O)N[C@@H](C)C(=O)N[C@H](C)C(=O)N(C)[C@@H](CC(C)C)C(=O)N[C@@H](CC(C)C)C(=O)N(C)[C@@H](C(C)C)C(=O)N1C", "note": "[Example 16] (cyclo(A[dA][NMeL]L[NMeV][MeBmt]T[dNMeAbu][NMeT](Me)L[NMeL]))", "HCV replicon replication inhibitory activity: EC50": "<0.5"}
{"compound": "C/C=C/C[C@@H](C)[C@@H](O)[C@H]1C(=O)N[C@@H]([C@@H](C)O)C(=O)N(C)[C@H](C)C(=O)N(C)[C@@H](C(C)OC(C)(C)C)C(=O)N[C@@H](CC(C)C)C(=O)N(C)[C@@H](CC(C)C)C(=O)N[C@@H](C)C(=O)N[C@H](C)C(=O)N(C)[C@@H](CC(C)C)C(=O)N[C@@H](CC(C)C)C(=O)N(C)[C@@H](C(C)C)C(=O)N1C", "note": "(stereo partly drawn) [Example 25, (3R,6S,9S,12S,15S,18S,21R,24S,27S,30S,33S)-33-(1-tert-butoxyethyl)-6-[(1R)-1-hydroxyethyl]-9-[(1R,2R,4E)-1-hydroxy-2-methyl-4-hexen-1-yl]-15,18,27,30-tetraisobutyl-12-isopropyl-1,3,4,10,13,19,21,24,28-nonamethyl-1,4,7,10,13,16,19,22,25,28,31-undecaazacyclotritriacontane-2,5,8,11,14,17,20,23,26,29,32-undecone] (cyclo(A[dA][NMeL]L[NMeV][MeBmt]T[dNMeA][NMeThr(3ξ)](tBu)L[NMeL]))", "HCV replicon replication inhibitory activity: EC50": "<0.5"}
{"compound": "C/C=C/C[C@@H](C)[C@@H](O)[C@H]1C(=O)N[C@@H]([C@@H](C)O)C(=O)N(C)[C@H](C)C(=O)N(C)[C@@H]([C@@H](C)OC)C(=O)N[C@@H](CC(C)C)C(=O)N(C)[C@@H](CC(C)C)C(=O)N[C@@H](C)C(=O)N[C@H](C)C(=O)N(C)[C@@H](CC(C)C)C(=O)N[C@@H](CC(C)C)C(=O)N(C)[C@@H](C(C)C)C(=O)N1C", "note": "[Example 32] (cyclo(A[dA][NMeL]L[NMeV][MeBmt]T[dNMeA][NMeT](Me)L[NMeL]))", "HCV replicon replication inhibitory activity: EC50": "<0.5"}
{"compound": "C/C=C/C[C@@H](C)[C@@H](O)[C@H]1C(=O)N[C@@H]([C@@H](C)O)C(=O)N(C)CC(=O)N(C)[C@@H](C(C)OC(C)(C)C)C(=O)N[C@@H](CC(C)C)C(=O)N(C)[C@@H](CC(C)C)C(=O)N[C@@H](C)C(=O)N[C@H](C)C(=O)N(C)[C@@H](CC(C)C)C(=O)N[C@@H](CC(C)C)C(=O)N(C)[C@@H](C(C)C)C(=O)N1C", "note": "(stereo partly drawn) [Example 52, (3S,6S,9S,12R,15S,18S,21S,24S,30S,33S)-24-(1-tert-butoxyethyl)-30-[(1R)-1-hydroxyethyl]-33-[(1R,2R,4E)-1-hydroxy-2-methyl-4-hexen-1-yl]-6,9,18,21-tetraisobutyl-3-isopropyl-1,4,10,12,15,19,25,28-octamethyl-1,4,7,10,13,16,19,22,25,28,31-undecaazacyclotritriacontane-2,5,8,11,14,17,20,23,26,29,32-undecone] (cyclo(A[dA][NMeL]L[NMeV][MeBmt]T[Sar][NMeThr(3ξ)](tBu)L[NMeL]))", "HCV replicon replication inhibitory activity: EC50": "<0.5"}
{"tested_on": "Human Immunodeficiency Virus Type 1 (HIV-1)", "conditions": "M. Thali et al., Nature 372, 363-365 (1994); cited from earlier work"}
{"compound": "Cyclosporin A", "anti-HIV activity": "anti-HIV activity"}
{"tested_on": "HCV", "conditions": "K. Inoue et al., 6th International Symposium on Hepatitis C and Related Virus (2000); cited from earlier work"}
{"compound": "Cyclosporin A", "anti-HCV activity": "anti-HCV activity"}
